EC50 and Emax data for 15 compounds are collected here from patent publication US20240336571A1, “NOVEL CYCLOPROPYL COMPOUNDS” (ICAGEN, LLC, priority 2021, published 2024).

pEC50: −log10 of the molar value.

This assay addresses human Kv7.2 (Homo sapiens (Human), UniProt O43526). As to the kind of experiment: SyncroPatch 384 electrophysiology, activation of Kv7.2 in CHO cells. The class given is cell-based. Conditions: for pEC50: CHO cells stably expressing human Kv7.2, potassium current at -90 mV repolarizing step, in presence of zinc pyrithione; for Emax: CHO, Kv7.2 activation max %, relative to 30 μM ML-213 max activation. The procedure: The potency of Kv7 potentiators was determined using the SyncroPatch 384 (Nanion) high throughput electrophysiology platform.
CHO cells stably expressing either human Kv7.2, Kv7.4 or Kv7.5/7.3 under a constitutive CMV promoter were used for these studies. Cells were maintained in F12 Hams+1 mM L-glutamine (Hyclone) supplemented with 10% FBS (Sigma), 0.3×NEAA (Non-essential Gamino-acids) and 400 ug/ml G418 at 37° C. in 5% CO2. Cells were cultured in T-225 flasks (Nunc) for 2-3 days to reach 85-95% confluence prior to electrophysiological recording.
Earle's balanced salt solution (in mM): 135 NaCl, 5.4 KCl, 5 Glucose, 2 CaCl2, 1 MgCl2, 5 HEPES, pH 7.4. Seal enhancer solution (in mM): 90 NaCl, 3 KCl, 35 CaCl2, 10 MgCl2, 10 HEPES, pH 7.4. Extracellular recording solution (in mM): 71 NaCl, 70 NMDG, 13 KCl, 5 Glucose, 2 CaCl2, 1 MgCl2, 10 HEPES, pH 7.4. Intracellular recording solution (in mM): 130 KF, 20 KCl, 4 EGTA, 10 HEPES, 2 EDTA, 0.01 Escin, pH 7.2.
Cells were harvested for electrophysiological recording upon reaching appropriate confluence. Cells were first washed in DPBS (Hyclone, Cat #SH30028.03) and then 2 ml of Accutase (MP Biomedicals #1000449) was added at 28° C. until ˜90% of cells were suspended. F12 HAM's media+1 mM L-glutamine (Hyclone, SH30026.02) was then added to the flask to dilute the accutase. Cells were then triturated until a single cell suspension was achieved, a cell count was performed, and cells were centrifuged for 2 min. at 1,000 rpm. Media was then aspirated, and cells were resuspended in Earle's balanced salt solution to a concentration of 0.75×10^6 cells/ml and allowed to recover for 25 min at 10° C.
At the beginning of each assay, 20 μl of cell suspension was dispensed into each well of a multi-hole 384-well SyncroPatch chip by the onboard pipettor. Cell sealing was initiated, and seal enhancer solution was added to facilitate seal formation. Upon completion of sealing, cells were washed 3 times with extracellular recording solution and the assay voltage protocol was started. Human Kv7.2, Kv7.4 or Kv7.5/7.3 channels were evaluated using a voltage protocol in which cells were voltage-clamped at a holding potential of −60 mV. Potassium currents were continuously activated with a series of three voltage steps to −30 mV for 3 seconds, 40 mV for 1 second and −90 mV for 4 seconds with 12 seconds between successive voltage sweeps. Potassium currents were measured from the −90 mV repolarizing step. Baseline current was assessed for 3.5 minutes prior to the addition of 5.6 μM zinc pyrithione (1 μM for Kv7.4). Kv7.2, Kv7.4 or Kv7.5/7.3 current in the presence of zinc pyrithione was acquired over five minutes to allow channels to reach steady state activity prior to addition of test agents. Channel activity was monitored for three minutes preceding the addition of 30 μM ML-213 (3 minutes) to achieve maximum activation. 150 mM TEA with 10 μM XE-991 was applied for 2 minutes to measure the leak current during maximum inhibition of Kv7.2, Kv7.4 or Kv7.5/7.3 channels.
Data were collected on the SyncroPatch platform using PatchControl software (Nanion) and processed and analyzed using DataControl Software (Nanion). Percent activation was calculated from potassium current as follows: The average current for the 5 sweeps in the presence of zinc pyrithione immediately preceding test agent addition was taken as the ‘control’ data. Likewise, the average potassium current in the presence of test agents 5 sweeps immediately preceding addition of 30 μM ML-213 was determined for ‘drug’ data. The average potassium current 5 sweeps immediately prior to addition of 150 mM TEA+10 μM XE-991 was determined for ‘max activation’ data while average currents from 5 sweeps immediately following addition of TEA was determined for ‘max inhibition’ data. Percent activation for each of the 384-wells of a sealchip was calculated as ((‘drug’−‘max inhibition’)/(‘max activation’−‘max inhibition’))*100 with Pipeline Pilot (Accelrys). […]

Take `COc1cc(CNC(=O)N[C@@H]2C[C@H]2c2ccccc2)ccn1` [Example 9, 1-[(2-methoxypyridin-4-yl)methyl]-3-[(1R,2S)-2-phenylcyclopropyl]urea]: the pEC50 is 5.47 and the Emax is 78%.

Regarding `N#Cc1cc(CNC(=O)N[C@@H]2C[C@H]2c2ccccc2)ccn1` [Example 10, 1-[(2-cyanopyridin-4-yl)methyl]-3-[(1R,2S)-2-phenylcyclopropyl]urea], the pEC50 is 5.92 and the Emax was found to be 43%.

Consider `O=C(NCc1ccnc(-n2ccnc2)c1)NC1CC1C1CCCCC1` (stereo not drawn) [Example 11, 1-(2-cyclohexylcyclopropyl)-3-[(2-imidazol-1-ylpyridin-4-yl)methyl]urea], for which the pEC50 was 5.67 and the Emax worked out at 52%.

For `O=C(NCc1ccnc(-n2cccn2)c1)N[C@@H]1C[C@H]1c1ccccc1` [Example 13, 1-[(1R,2S)-2-phenylcyclopropyl]-3-[(2-pyrazol-1-ylpyridin-4-yl)methyl]urea], the pEC50 was 5.87 and the Emax came out at 74%.

Turning to `O=C(NCc1ccnc(OCC(F)(F)F)c1)N[C@@H]1C[C@H]1c1ccccc1` [Example 14, 1-[(1R,2S)-2-phenylcyclopropyl]-3-[[2-(2,2,2-trifluoroethoxy)pyridin-4-yl]methyl]urea], the pEC50 is 7.15 and the Emax came to 71%.

For `O=C(NCc1ccnc(OC2COC2)c1)N[C@@H]1C[C@H]1c1ccccc1` [Example 16], the pEC50 is 6.02 and the Emax amounted to 57%.

Regarding `N#Cc1cccc(CNC(=O)N[C@@H]2C[C@H]2c2ccccc2)n1` [Example 18, 1-[(6-cyanopyridin-2-yl)methyl]-3-[(1R,2S)-2-phenylcyclopropyl]urea], the pEC50 is 5.52 and the Emax came out at 62%.

As to `O=C(NCc1ccnc(Cl)c1)N[C@@H]1C[C@H]1c1ccccc1` [Example 19, 1-[(2-chloropyridin-4-yl)methyl]-3-[(1R,2S)-2-phenylcyclopropyl]urea], the pEC50 was 5.17 and the Emax is 60%.

Regarding `O=C(NCc1ccnc(OC2CCOCC2)c1)N[C@@H]1C[C@H]1c1ccccc1` [Example 20, 1-[[2-(oxan-4-yloxy)pyridin-4-yl]methyl]-3-[(1R,2S)-2-phenylcyclopropyl]urea], the pEC50 is 5.23 and the Emax was 58%.

Consider `O=C(NCc1ccnc(C(F)F)c1)N[C@@H]1C[C@H]1c1ccccc1` [Example 21, 1-[[2-(difluoromethyl)pyridin-4-yl]methyl]-3-[(1R,2S)-2-phenylcyclopropyl]urea], for which the pEC50 is 5.49 and the Emax was found to be 72%.

With `O=C(NCc1ccnc(C(F)(F)F)c1)N[C@@H]1C[C@H]1c1ccccc1` [Example 22, 1-[(1R,2S)-2-phenylcyclopropyl]-3-[[2-(trifluoromethyl)pyridin-4-yl]methyl]urea], the pEC50 is 6.14 and the Emax is 53%.

As for `O=C(NCc1ccnc(OC2CCC2)c1)N[C@@H]1C[C@H]1c1ccccc1` [Example 25, 1-[(2-cyclobutyloxypyridin-4-yl)methyl]-3-[(1R,2S)-2-phenylcyclopropyl]urea], the pEC50 was 5.98 and the Emax is 60%.

Regarding `CC(F)(F)c1cc(CNC(=O)N[C@@H]2C[C@H]2c2ccccc2)ccn1` [Example 26, 1-[[2-(1,1-difluoroethyl)pyridin-4-yl]methyl]-3-[(1R,2S)-2-phenylcyclopropyl]urea], the pEC50 was 5.81 and the maximal response (Emax) is 97%.

On to `O=C(NCc1ccnc(-n2ccnc2)c1)N[C@@H]1C[C@H]1c1ccccc1` [Example 27, 1-[(2-imidazol-1-ylpyridin-4-yl)methyl]-3-[(1R,2S)-2-phenylcyclopropyl]urea], for which the pEC50 is 5.55 and the Emax was 45%.

As for `O=C(NCc1ccnc(OC(F)(F)F)c1)N[C@@H]1C[C@H]1c1ccccc1` [Example 28, 1-[(1R,2S)-2-phenylcyclopropyl]-3-[[2-(trifluoromethoxy)pyridin-4-yl]methyl]urea], the pEC50 is 5.87 and the Emax was determined as 62%.
